# In US6054437A, “Method for inducing death of neoplastic cells using piperazine derivatives” (Hitachi Chemical Research Center, Inc., priority 1997, dated 2000):
# “Also recorded” adds a separate entry of the source. Where a name gives a salt, the structure may show the parent alone. Read-outs that look alike come from different tables or passages of the source.
# Experiments:
# KB-V-1 (resistant) = test: Cell survival assay with vinblastine, resistant cells; type: cell-based, human; conditions: for IC50: Homo sapiens, KB-V1
# Experimental: where the effect of NCO-700 to enhance cancer cell killing by vinblastine was measured.
# (§1) In the first two in vitro assays, the drug accumulation assay and the cell survival assay, a human pharyngeal carcinoma cell line (KB-V-1) which is highly resistant to anticancer drugs was used. This cell line was developed by Drs. Ira Pastan and Michael Gottesman of the National Cancer Institute, by step-wise selection in colchicine of drug-resistant cells. The control cancer cell line (KB-3), from which the resistant cell lines were derived, is sensitive to anticancer drugs. The resistant KB-V-1 cell line is approximately 275 times more resistant to vinblastine than the sensitive KB-3 line and has a greatly amplified mdr gene which generates the observed resistance.
# The cell survival experiments shown above were performed by plating KB-3 (sensitive) and KB-V-1 (resistant) cells in 32 mm well plastic dishes at a cell density of 300-500 cells per well. Vinblastine and NCO-700 were added 16 hours after the initial cell plating. After 10 days of incubation at 37°, cell colonies were stained and counted.
# KB-3 (sensitive cells) = test: Drug accumulation assay ([3H]-vinblastine), sensitive cells; type: cell-based, human; conditions: KB-3, 20 μM NCO-700 + vinblastine
# Experimental: 1. Drug Accumulation Assays
# where the effect of NCO-700 on the uptake of radioactive (^3 H)-vinblastine, an anticancer drug, is measured in cultured cancer cells, that are both drug-resistant and drug-sensitive (Reference 3).
# as §1
# Measurement of [^3 H]-vinblastine accumulation was performed by the methods developed in the laboratory of Drs. Gottesman and Pastan (Fojo et al., Cancer Res. 45:3002-3007, 1985). […] After an additional 30 min, the medium was removed, the plates were washed three times in ice-cold phosphate-buffered saline, the cells were detached with trypsin, and radioactivity determined by scintillation counting.
# ovarian tumor cells = test: Human tumor biopsy assay, ovarian tumor; type: cell-based; conditions: 20 μM NCO-700 and 0.4 mg/ml vinblastine, 1 hour
# Experimental: 4. Human Tumor Biopsy Assays
# where the effect of NCO-700 to enhance killing, by either vinblastine or adriamycin, of cancer cells cultured directly from patient's tumors (Von Hoff et al., Cancer Res. 43:1926-1931, 1983).
# For the tumor biopsy assay, primary cell cultures were propagated directly from tumor specimens removed from patients. The cells were grown in suspension culture, treated with adriamycin or vinblastine plus NCO-700, and plated onto soft agar and incubated for two weeks before cell survival was determined.
# In a final series of experiments, the effect of NCO-700 on survival of cells cultured directly from biopsied patient tumors was performed. This technique, referred to as a human tumor cloning system, was developed by Von Hoff and associates (Von Hoff et al., Cancer Res. 43:1926-1931, 1983) and was used clinically to predict the course of chemotherapy for these patients. In this method, tumor biopsies were separated into cell suspensions and treated for 1 hour with either 0.4 mg/ml vinblastine (VLB) or 0.5 mg/ml adriamycin (ADR) plus or minus 20 μM NCO-700. The cell suspensions were washed after one hour of incubation and plated with soft agar. After 14 days of incubation at 37°, the percent of colonies surviving was scored. […] In particular, the survival of tumor cells decreased to approximately 1/2 to 1/3 after exposure to NCO-700 and adriamycin. […]
# HS-578T (breast) = test: Cancer cell survival assay, HS-578T; type: cell-based, human; conditions: seven days, alone
# Experimental: Cell survival was assayed in cultured tumor cells. From 500-1000 cells per well were plated in 24-welled culture dishes and exposed to drug for seven days. After drug exposure, a computerized cell imaging technique was utilized to ascertain the number of viable cells remaining in each culture. From the data, survival curves were plotted and a ED50 (drug concentration that permits 50% cell survival) were calculated.
# The cancer cell survival assay is an important additional in vitro assay to assess the anti-neoplastic activity of compounds as the cells are given a prolonged exposure (seven days) to the drug. FIGS. 9-16 show the effect of increasing the dose of NCO-700 on the survival of a number of cancer cell lines. […] In the figures, the vertical axis is the object area, which is the number of surviving cancer cells calculated by a computer.
# human cancer cells = test: Cancer cell death assays against a number of human cancer cells; type: cell-based; conditions: compounds alone; analogs at 25 μM (FIGS. 20-25)
# Experimental: Cell death was measured quantitatively by the release of a marker intracellular enzyme, lactate dehydrogenase (LDH), from damaged or killed cells. LDH released into the extracellular fluid, was measured 24 hours after drug exposure to cancer cells and the enzyme activity was determined by the method of Decker et al. (J. Immunolog Methods 15:61-99, 1988).
# As described in Experiment 1, three different assays were performed to measure anti-neoplastic activity of compounds.
# The first assays performed measured the anti-neoplastic activity of NCO-700 analogs in cell death assays against a number of human cancer cells. The results of these experiments are shown in FIGS. 20-25, where a bar graph indicates the activity of a particular analog as measured by the % LDH released, with higher values of LDH released indicating greater anti-neoplastic activity (apoptosis). All analogs were tested at a concentration of 25 μM.
smiles,measurement,setting,value
"CCOC(=O)[C@@H]1O[C@H]1C(=O)N[C@@H](CC(C)C)C(=O)N1CCN(Cc2ccc(OC)c(OC)c2OC)CC1 [NCO-700, Bis[ethyl (2R,3R)-3-[(S)-3-methyl-1-[4-(2,3,4-trimethoxyphenylmethyl)piperazin-1-ylcarbonyl]butylcarbamoyl]oxirane-2-carboxylate] Sulfate]",IC50,"KB-V-1 (resistant); KB-V-1, + 25 μM NCO-700, read-out: vinblastine to kill 50% of cells",0.148 µg/mL
same,IC50,"KB-V-1 (resistant); KB-V-1, + 30 μM NCO-700, read-out: level of vinblastine needed to kill 50% of the tumor cells",0.16 µg/mL
same,enhancement of killing of resistant cells by vinblastine,"KB-V-1 (resistant); drug-resistant cells, with vinblastine",enhanced killing of the drug-resistant cells; also recorded: dramatic effect; also recorded: highly significant increase in the killing of these cancer cells
same,vinblastine accumulation,KB-3 (sensitive cells),3.17 ± 0.09 pmole vinblastine/mg protein
same,survival of tumor cells decreased to (fraction),ovarian tumor cells,approximately 1/3
same,anti-neoplastic activity (cell survival),HS-578T (breast),significant anti-neoplastic activity
same,"anti-neoplastic activity, selectivity among human cancer cells",human cancer cells,highly effective as an anti-neoplastic agent versus selective tumors
